Assay results as given in US12161762B2, “Nanohelix-substrate complex for controlling macrophage behavior, preparation method thereof, and method of controlling adhesion and polarization of macrophage by using the same” (Korea University Research and Business Foundation, priority 2020, dated 2024).

System: Macrophages (RAW 264.7)
Assay: Macrophage polarization on the substrate with inhibitors of ROCK, myosin II or actin polymerization
Assay type: cell-based
Details: 50 μM Y27632, 10 blebbistatin, 2 μg/mL cytochalasin D; for M1 polarization suppression of macrophages (CD68): M1 medium, 36 hours, bimodal switching "ON" state; for stimulation of robust adhesion (cell area, elongation factor) and expression of M2 polarization (Arg-1 expression): M2 medium, inhibitor treated
Procedure: M1 medium used for assessment of the phenotypic polarization of macrophages was prepared by using a basal medium with 10 ng/mL each of lipopolysaccharide (LPS) and recombinant interferon-gamma (IFN-γ). M2 medium was prepared by using a basal medium with 20 ng/mL each of interleukin-4 (IL4) and interleukin-13 (IL-13). The adhesion-assisted M2 phenotypic polarization of the macrophages was assessed with inhibitors of ROCK (50 μM Y27632), myosin II (10 blebbistatin), or actin polymerization (2 μg/mL of cytochalasin D).
An upper part of FIG. 19 is a confocal immunofluorescent image of CD68, F-actin, and nuclei in macrophages cultured in an M1 polarization medium with and without an inhibitor for ROCK (Y27632), myosin II (blebbistatin), or actin polymerization (cytochalasin D) for 36 hours against and a graph illustrating a cell area, a cell elongation factor, and CD68 fluorescence intensity calculated based on a confocal immunofluorescent experiment result, and a lower part of FIG. 19 is a confocal immunofluorescent image of Arg-1, and F-actin, and nuclei in macrophages cultured in an M2 polarization medium with and without an inhibitor for ROCK (Y27632), myosin II (blebbistatin), or actin polymerization (cytochalasin D) and a graph illustrating a cell area, a cell elongation factor, and Arg-1 fluorescence intensity calculated based on the confocal immunofluorescent experiment result, and a scale bar represents 20 μm.

Row | Compound | M1 polarization suppression of macrophages (CD68) | stimulation of robust adhesion (cell area, elongation factor) and expression of M2 polarization (Arg-1 expression)
1 | C[C@@H](N)[C@H]1CC[C@H](C(=O)Nc2ccncc2)CC1 [Example Y27632, Y27632] | continuously hindered | hindered
2 | C=C1[C@@H](C)[C@H]2[C@H](Cc3ccccc3)NC(=O)[C@]23[C@H](OC(C)=O)/C=C/[C@@](C)(O)C(=O)[C@@H](C)C/C=C/[C@H]3[C@@H]1O [cytochalasin D] | continuously hindered | hindered
3 | Cc1ccc2c(c1)C(=O)C1(O)CCN(c3ccccc3)C1=N2 (stereo not drawn) [blebbistatin] | continuously hindered | hindered
